Consider 38 compounds from PubChem BioAssay (NCI).

What all share (assay): NCI tumour cell line growth inhibition, 48 h
Assay [1] deals with MDA-N.
In assay [2] the test system is DMS 273 small cell lung.
Assay [3] has as its system DMS 114 small cell lung.
Assay [4] concerns HOP-18 NSCLC.
The test system of assay [5] is LXFL 529 NSCLC.
In assay [6] the test system is DLD-1 colon.
Assay [7] concerns RXF-631 renal.
Assay [8] relates to M19-MEL melanoma.
In assay [9] the test system is XF 498 CNS.
The subject of assay [10] is P388 leukemia.

Where “and” joins values, the source holds several entries; their conditions need not be identical. Equal values may be shown once.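 Step 1: Grow cells in 96-well plates. Step 2: Expose to compound for 48 hours at 5 concentrations. Step 3: Interpolate endpoints linearly; if unreached, use highest concentration. GI50: concentration for 50% inhibition of growth. Definition used: TGI = concentration required for complete inhibition of growth.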 Where only a bound is given, the exact number is not on record here.

The compound `C/C(=C1/N=C(c2ccccc2)OC1=O)c1ccc(C)cc1` returned a TGI in assay [1] of over 100 µM.

In the case of `CCOC(=O)C1(Br)C(c2ccccc2)NC(=O)N(C2OC(COC(=O)c3ccccc3)C(OC(=O)c3ccccc3)C2OC(=O)c2ccccc2)C1(C)Br` (stereo not given), the TGI in assay [2] was over 100 µM; in assay [3] it was 49.6 µM; in assay [4] it was over 100 µM; in assay [5] it was over 75.7 µM; in assay [6], over 100 µM; in assay [7], 50 µM. The TGI in assay [8] was over 100 µM.

With `NC1=NN(c2ccccc2)C(=O)C1/C(=N\NC(=O)c1cc2ccccc2cc1O)C(=O)Nc1nc([N+](=O)[O-])cs1` (stereo not given), the TGI was over 73.6 µM in assay [2]; 45.6 µM in assay [3]; over 100 µM in assay [9]; over 100 µM in assay [4]; over 100 µM in assay [5]; over 77.2 µM in assay [6]. The results for the TGI in [7] and in [8] were over 71.7 µM and over 82.9 µM, respectively.

Consider `O=C(O)c1c([N+](=O)[O-])cc(C(F)(F)F)cc1[N+](=O)[O-]`, for which the TGI in assay [2], in assay [9], in assay [5], in [7] and in [8] was over 100 µM throughout.

For `O=C(c1ccco1)c1ccccc1C(=O)c1ccco1`, the TGI in assay [2], in [3], in assay [9], in assay [4], in assay [5] and in [6] was over 100 µM each time. Further, the TGI in assay [7] and in assay [8] was over 100 µM in each case.

Consider `CN(C)CCNC(=O)c1cccc2ccc(-c3cccnc3)nc12`, for which the TGI in [2] came to 13.1 µM; in [3], 18.6 µM; in assay [4], 62.9 µM; in [6] it was 60.4 µM; in assay [7], 23.1 µM; in [8], 16.9 µM.

In assay [1], `CN(C)c1ccc(/C=C/c2ccnc3ccc4ccccc4c23)cc1` had a TGI of over 100 µM.

In [1], `Nc1c(S(=O)(=O)O)cc(Nc2cccc(S(N)(=O)=O)c2)c2c1C(=O)c1ccccc1C2=O` yielded a TGI of 42.8 µM.

For the compound `COc1cc[c]([Sb]([Br])([CH]=C(C)C)([CH]=C(C)C)[CH]=C(C)C)cc1`, the GI50 in assay [2] is 3.3 µM; in assay [3], 3.02 µM; in assay [5], 2.88 µM; in assay [6] it was 24.1 µM; in assay [8] it was 3.1 µM. Moreover, the TGI in [2] was 23.3 µM; in assay [3], 20.8 µM; in assay [5], 39.3 µM; in [6] it was over 100 µM; in assay [8], over 100 µM.

Turning to `CCCCCCCCCCCCC/C=C1\C[C@H](O)COC1=O`, the TGI in [2] stood at 28 µM; in assay [9], 30.5 µM; in [4], 31.6 µM; in assay [5] it was 29.8 µM; in assay [6], 32 µM; in assay [8], 33.6 µM.

In the case of `CC1(C(=O)NCCN(CCNC(=O)C2(C)CC3(C)CC(C)(C2)C(=O)NC3=O)CCNC(=O)C2(C)CC3(C)CC(C)(C2)C(=O)NC3=O)CC2(C)CC(C)(C1)C(=O)NC2=O` (stereo not given), the TGI in assay [2], in assay [3], in [9], in [4], in assay [5] and in assay [8] was over 100 µM each time.

Take `COc1ccc2nc3ccccc3c(NCCCCCN(CCCl)CCCl)c2c1`: the TGI in assay [2] was 0.343 µM; in assay [9], 0.0717 µM; in assay [4] it was over 27.3 µM; in assay [5], 0.81 µM; in assay [6], 0.793 µM.

With `[C-]#[O+].[C-]#[O+].[Ir].[O-]c1ccc2ccccc2c1N=Nc1ccccc1`, the GI50 was 2.68 µM in assay [3]; 2.14 µM in [9]; 0.313 µM in [4]; 3.3 µM in assay [6]; 3.24 µM in assay [8]. Moreover, the TGI is 8.68 µM in assay [3]; 5.18 µM in assay [9]; 10.3 µM in assay [4]; 12.4 µM in [6]; 18.8 µM in assay [1]; 21.2 µM in assay [8].

As to `O=C(c1ccccn1)c1nc(-c2ccc(Cl)c(Cl)c2)nc2ccc(Cl)cc12`, the TGI in assay [2] is over 100 µM; in assay [3], over 100 µM; in [9], 55.3 µM; in assay [5] it was over 100 µM; in assay [6], over 100 µM; in assay [8], over 100 µM.

With `c1ccc(CCCNc2nnnc3ccccc23)cc1`, the TGI in [1] was over 100 µM.

Consider `COc1cc([N+](=O)[O-])c(S(=O)(=O)O)cc1N`, for which the TGI in [1] is over 100 µM.

`COc1ccc2[nH]c3c(C)c4cc[n+](C)cc4c(C)c3c2c1`: the GI50 in assay [2] is 0.502 µM and 0.189 µM; in [3] it was 0.104 µM; in assay [5] it was 0.383 µM; in assay [6], 0.889 µM and 0.835 µM; in assay [1], 9.89 µM and 2.19 µM and 14.7 µM; in [10] it was 1.78 µM. In addition, the GI50 in [8] was 0.327 µM. For the same compound, the TGI in [3] was 2.52 µM and 1.72 µM and 1.56 µM; in [5] it was 3.41 µM; in [1], > 100 µM and 84.9 µM and 63 µM; in [10] it was 19.1 µM and 10.8 µM and 16.5 µM; in assay [8], 3.69 µM and 2.48 µM and 2.89 µM.

`C/C=C/C(=O)[C@@H](O)C(C)C`: the TGI in assay [2], in [5] and in assay [8] was over 100 µM in each case.

With `Clc1ccccc1C1N2CCCCC2[C@@H]2c3[nH]c4ccccc4c3CCN12` (stereo not given in full), the TGI is over 100 µM in assay [2]; 41.6 µM in assay [3]; 35.4 µM in assay [9]; over 100 µM in assay [4]; over 100 µM in [5]; 37.5 µM in assay [6]. Further, in [8], the TGI turned out to be 29.2 µM.

`CN(C)CCNC(=O)c1cccc2cc([N+](=O)[O-])ccc12`: the TGI is 0.722 µM in assay [2]; 0.743 µM in assay [3]; 1.04 µM in assay [9]; 4.4 µM in assay [4]; 1.83 µM in assay [5]; 1.55 µM in assay [6]. Also, the results for the TGI in [1] and in assay [8] were 6.23 µM and 0.902 µM, respectively.

For the compound `N.N.N.N.N.N#N.[Cl-].[Os+7]`, the GI50 in assay [2], in assay [4], in [5] and in [6] was over 100 µM in each case. In addition, the TGI in assay [2], in assay [4], in assay [5] and in assay [6] was over 100 µM throughout.

In the case of `CCCCNC(=O)OCC(COc1ccccc1OC)OC(=O)NCCCC` (stereo not given), the TGI in assay [2], in assay [3], in assay [9], in assay [4], in assay [5] and in assay [6] was over 100 µM each time. In addition, the TGI in [7] and in [8] was over 100 µM in each case.

Regarding `Cc1coc2c1CC1OC1(C)CCC1OC1(C)C2` (stereo not given), the TGI in assay [1] was over 100 µM.

Turning to `CC(N)(Cc1c[nH]c2ccccc12)C(=O)O` (stereo not given), in [1], the TGI was over 100 µM.

On to `COc1ccc(OC)c(/C=C/C(=O)C(C)(C)C)c1`, for which the TGI in [2] amounted to 50.9 µM; in assay [3], 32.1 µM; in [4] it was 38.9 µM; in assay [5], 36.4 µM; in assay [6], 48.4 µM; in assay [7], 85.1 µM. Also, the TGI in assay [8] was determined as 34.9 µM.

For `O=c1c2cc(Br)ccc2nc(-c2ccccc2)n1NCC1(O)OCC(O)C(O)C1O` (stereo not given), the TGI in assay [2], in assay [3], in assay [5] and in [8] was over 100 µM each time.

In assay [1], `Nc1ccc(-c2ccc(Nc3cc(S(=O)(=O)O)c(N)c4c3C(=O)c3ccccc3C4=O)cc2)c(S(=O)(=O)O)c1` had a TGI of over 100 µM.

`CCC(C(=O)c1cccs1)C(O)(C(F)(F)F)C(F)(F)F` (stereo not given): the TGI in assay [1] was over 100 µM.

Regarding `CSc1c(S(C)=O)[nH]c2cc(Br)cc(Br)c12` (stereo not given), the TGI worked out at 35.1 µM in assay [2]; 80.5 µM in assay [4]; 48.8 µM in [5]; 51.9 µM in assay [6]; 75.4 µM in [8].

Turning to `Cc1cc2c(=O)cc(-c3ccc(C(F)(F)F)cc3)oc2c(C(=O)O)c1C`, the TGI in assay [2], in [3], in assay [9], in assay [4], in [5] and in assay [6] was over 100 µM in each case. In addition, the TGI in assay [7] and in [8] was over 100 µM each time.

In the case of `CC(C)[C@H]1CO[C@@H]2O[C@H](C)CC(=O)N21`, the TGI in assay [3], in [4], in [5], in [6] and in assay [8] was over 100 µM in each case.

As to `C=CC1(c2ccccc2Cl)N/C(=C/OCC)CO1` (stereo not given), the TGI in assay [2], in [3], in [9], in [4], in [5] and in assay [6] was over 100 µM in each case. For the same compound, the TGI in [7] and in assay [8] was over 100 µM each time.

`CNS(=O)(=O)c1ccccc1C(=N)c1ccccc1` yielded a TGI in assay [1] of over 100 µM.

`Clc1ccccc1-c1nc(-c2ccncc2)no1` had a TGI in assay [1] of over 100 µM.

For `NC(=S)N/N=C1\C(=O)N(CCc2ccccc2)C(=O)C1C(=O)NCCc1ccccc1` (stereo not given), the TGI in [2], in assay [3], in assay [4], in [5] and in assay [8] was over 100 µM in each case.

For `Cc1ccc(/C=N/NS(=O)(=O)c2ccccc2)cc1`, the TGI in assay [2], in assay [3], in [9], in [4], in assay [5] and in assay [6] was over 100 µM in each case. In addition, the TGI in assay [7] was over 100 µM.

In the case of `S=c1nc[nH]c2nc[nH]c12`, the TGI in assay [2] was 565 µM; in [3], 385 µM; in [9], 163 µM; in assay [4], 644 µM; in assay [5], over 720 µM; in [6], over 750 µM. Also, the TGI is 636 µM and > 750 µM in assay [1]; 242 µM in assay [10]; over 734 µM in assay [8]. In addition, in assay [1], the GI50 was 7.85 µM.

For `CC(C)[C@](O)(C(=O)OCC1=CC[N+]2([O-])CC[C@@H](O)[C@@H]12)[C@H](C)O` (stereo not given in full), the TGI in assay [2], in assay [4], in assay [6], in [1], in [10] and in assay [8] was over 10000 µM each time.
